Results published in BigSolDB 2.1.

O=C1Cc2ccccc2N1
Details	solubility (mole fraction)
in 1,4-dioxane, 287.15 K	0.276
in 1,4-dioxane, 292.15 K	0.309
in 1,4-dioxane, 296.15 K	0.336
in 1,4-dioxane, 300.15 K	0.363
in 1,4-dioxane, 304.15 K	0.394
in 1,4-dioxane, 308.65 K	0.421
in 1,4-dioxane, 311.65 K	0.448
in 1,4-dioxane, 315.35 K	0.475
in 1,4-dioxane, 319.05 K	0.502
in 1,4-dioxane, 323.15 K	0.529
in 1,4-dioxane, 328.15 K	0.567
in THF, 293.85 K	0.0116
in THF, 298.65 K	0.0133
in THF, 302.95 K	0.0155
in THF, 307.25 K	0.0181
in THF, 312.55 K	0.021
in THF, 317.05 K	0.0243
in THF, 321.35 K	0.0276
in THF, 327.35 K	0.0327
in THF, 333.95 K	0.0397
in acetone, 288.15 K	0.0498
in acetone, 294.05 K	0.0602
in acetone, 299.35 K	0.0707
in acetone, 304.55 K	0.0812
in acetone, 309.65 K	0.0919
in acetone, 314.45 K	0.102
in acetone, 319.55 K	0.112
in acetone, 325.55 K	0.122
in acetone, 328.25 K	0.127
in acetonitrile, 287.15 K	0.0508
in acetonitrile, 292.15 K	0.0628
in acetonitrile, 296.15 K	0.0748
in acetonitrile, 300.15 K	0.0869
in acetonitrile, 304.15 K	0.101
in acetonitrile, 308.65 K	0.123
in acetonitrile, 311.65 K	0.146
in acetonitrile, 315.35 K	0.171
in acetonitrile, 319.05 K	0.196
in acetonitrile, 323.15 K	0.227
in acetonitrile, 328.15 K	0.285
in dichloromethane, 288.15 K	0.0353
in dichloromethane, 292.15 K	0.0383
in dichloromethane, 296.15 K	0.0419
in dichloromethane, 300.15 K	0.0452
in dichloromethane, 304.15 K	0.0485
in dichloromethane, 308.65 K	0.0519
in dichloromethane, 311.65 K	0.0552
in ethanol, 291.95 K	0.00842
in ethanol, 297.95 K	0.0134
in ethanol, 302.95 K	0.0186
in ethanol, 307.65 K	0.0253
in ethanol, 312.55 K	0.0324
in ethanol, 318.05 K	0.0458
in ethanol, 322.65 K	0.0568
in ethanol, 327.95 K	0.0742
in ethanol, 332.65 K	0.0952
in ethyl acetate, 287.15 K	0.141
in ethyl acetate, 292.15 K	0.156
in ethyl acetate, 296.15 K	0.169
in ethyl acetate, 300.15 K	0.184
in ethyl acetate, 304.15 K	0.198
in ethyl acetate, 308.65 K	0.215
in ethyl acetate, 311.65 K	0.233
in ethyl acetate, 315.35 K	0.247
in ethyl acetate, 319.05 K	0.27
in ethyl acetate, 323.15 K	0.287
in ethyl acetate, 328.15 K	0.32
in isopropanol, 291.95 K	0.00673
in isopropanol, 297.95 K	0.00919
in isopropanol, 303.05 K	0.0122
in isopropanol, 308.35 K	0.0155
in isopropanol, 313.15 K	0.0192
in isopropanol, 317.45 K	0.0232
in isopropanol, 322.15 K	0.0287
in isopropanol, 328.35 K	0.0355
in isopropanol, 333.35 K	0.0443
in methanol, 291.95 K	0.00441
in methanol, 297.95 K	0.00563
in methanol, 302.95 K	0.00688
in methanol, 307.65 K	0.00821
in methanol, 312.55 K	0.00977
in methanol, 317.45 K	0.0119
in methanol, 322.15 K	0.0137
in methanol, 327.35 K	0.0163
in methanol, 332.35 K	0.019
in n-butanol, 293.85 K	0.00297
in n-butanol, 298.65 K	0.00379
in n-butanol, 302.95 K	0.00468
in n-butanol, 307.25 K	0.00546
in n-butanol, 312.55 K	0.00674
in n-butanol, 317.05 K	0.00793
in n-butanol, 321.35 K	0.00952
in n-butanol, 327.35 K	0.0115
in n-butanol, 333.95 K	0.0143
in n-propanol, 293.15 K	0.0387
in n-propanol, 299.35 K	0.0476
in n-propanol, 303.05 K	0.0523
in n-propanol, 308.35 K	0.0599
in n-propanol, 313.15 K	0.0677
in n-propanol, 317.05 K	0.0744
in n-propanol, 320.75 K	0.0814
in n-propanol, 328.35 K	0.0976
in n-propanol, 333.35 K	0.109
in toluene, 291.95 K	0.00318
in toluene, 297.95 K	0.00526
in toluene, 302.95 K	0.00796
in toluene, 307.65 K	0.0121
in toluene, 312.55 K	0.018
in toluene, 317.45 K	0.0258
in toluene, 322.15 K	0.0389
in toluene, 327.35 K	0.0615
in toluene, 332.05 K	0.0848
